Columns and labels:
narkotisierten Ratte = test: blood-pressure-lowering effect in the anaesthetised rat; details: for Tiere gestorben: 10 mg/kg, dead animals of 6; for Blutdrucksenkende Wirkung ED 20 %: Urethan-Narkose, dose lowering blood pressure by 20 %; for ED20: Rattus norvegicus, iv, read-out: Blutdrucksenkende Wirkung ED 20 %
Experimental: (§1) Die Applikation der getesteten Substanzen erfolgt 10 min vor Isoproterenol an Gruppen von 3 bis 5 Katzen pro Dosis. […] Blutdrucksenkende Wirkung an der. narkotisierten Ratte. Zur Testung der blutdrucksenkenden Wirkung erhalten Gruppen von 3 bis 5 männlichen Sprague-Dawley-Ratten (Gewicht: 230 - 280 g) in Urethan-Narkose (1,78 g/kg) i.p.) die Substanz intravenös appliziert. Die Messung des Blutdrucks in der A.carotis erfolgt über Statham-Transducer. Als ED 20 % wird die Dosis ermittelt, welche den mittleren Carotisdruck um 20 % senkt. • 3. Antihypertensive Wirkung an spontan hypertonen Ratten. Die Substanzen werden Gruppen von 8 männlichen spontan hypertonen Okamoto-Ratten (Gewicht: 280 - 350 g) oral appliziert. Vor und zwei Stunden nach der Applikation wird der systolische Blutdruck am Rattenschwanz unblutig mit Hilfe von Piezokristallaufnehmern gemessen. Als ED 20 % wird unter Berücksichtigung der Nerte unbehandelter Kontrolltiere die Dosis bestimmt, welche den systolischen Druck um 20 % senkt. • 4. Akute Toxizität an der Maus Zur Bestimmung der akuten Toxizität (LD 50) werden die Substanzen Gruppen von je 10 weiblichen NMRI-Mäusen (Gewicht: 19 - 20 g) intraperitoneal appliziert. Die Beobachtungsdauer beträgt 1 Woche. Die Berechnung der wirksamen Dosen (s. 1.-3.) erfolgte aus den linearen Beziehungen zwischen den Logarithmen der Dosen und der Wirkung mit Hilfe der Regressionsanalyse. Die LD 50 (4.) wurden mit Hilfe der Probit-Analyse bestimmt.

[1] = system: spontan hypertonen Ratten; test: antihypertensive effect in spontaneously hypertensive rats; assay type: in vivo, Okamoto-Ratten; details: spontan hypertone Ratten, oral
Experimental: as §1, with “Die LD 50 (4.) wurden mit Hilfe der Probit-Analyse bestimmt.” left out

[2] = system: Isoproterenol--Tachycardie der narkotisierten Katze; test: beta-sympatholytic effect on isoproterenol tachycardia in the anaesthetised cat; assay type: in vivo; details: for ß-Sympatholytische Wirkung R.W. (Relative Wirksamkeit): Propranolol = 1,00; for ED50: Felis catus, iv, read-out: ß-Sympatholytische Wirkung ED 50 %
Experimental: as §1, with “Akute Toxizität an der Maus Zur Bestimmung der akuten Toxizität (LD 50) werden die Substanzen Gruppen von je 10 weiblichen NMRI-Mäusen (Gewicht: 19 - 20 g) intraperitoneal appliziert.” left out, “Regressionsanalyse.” for “Regressionsanalyse. Die LD 50 (4.) wurden mit Hilfe der Probit-Analyse bestimmt.”

Maus = test: in vivo; details: Maus, i.p., observation 1 week; 10080 min
Experimental: as §1, with “Akute Toxizität an der Maus Zur Bestimmung der akuten Toxizität (LD 50) werden die Substanzen Gruppen von je 10 weiblichen NMRI-Mäusen (Gewicht: 19 - 20 g) intraperitoneal appliziert.” left out, “Regressionsanalyse.” for “Regressionsanalyse. Die LD 50 (4.) wurden mit Hilfe der Probit-Analyse bestimmt.”

in vivo = details: mouse, in vivo, ip
Experimental: as §1, with “Akute Toxizität an der Maus Zur Bestimmung der akuten Toxizität (LD 50) werden die Substanzen Gruppen von je 10 weiblichen NMRI-Mäusen (Gewicht: 19 - 20 g) intraperitoneal appliziert.” left out, “Regressionsanalyse.” for “Regressionsanalyse. Die LD 50 (4.) wurden mit Hilfe der Probit-Analyse bestimmt.”

Row | Molecule | Tiere gestorben (narkotisierten Ratte; Ratte, i.v.) [von 6] | ß-Sympatholytische Wirkung R.W. (Relative Wirksamkeit) ([2]; Katze, i.v.) | Blutdrucksenkende Wirkung ED 20 % (narkotisierten Ratte; Ratte, i.v.) | ED20 (narkotisierten Ratte) [mg/kg] | LD50 at 168 h (in vivo) [mg/kg] | ED50 [2] [mg/kg] | also measured
1 | CC(C)NCC(O)COc1cccc2ccccc12 (centres unmarked) [Propranolol, reference compound] | 2 | – | – | – | – | – | Blutdrucksteigerung (narkotisierten Ratte; Ratte, i.v., bis 2,15 mg/kg): blutdrucksteigernd; Antihypertensive Wirkung ([1]; bis zu einer Dosis von 100 mg/kg): wirkungslos
2 | 3-Äthyl-5-[2-(2-hydroxy-3-cyclopropylaminopropoxy)-styryl]-isoxazol [Verbindung 8] | – | 0,9 | 0,83 mg/kg | – | – | – | ß-sympatholytische Wirksamkeit compared with Propranolol [2]: etwa wirkungsgleich; ß-Sympatholytische Wirkung ED 50 % ([2]; Katze, Hexobarbital-Narkose, i.v., dose inhibiting the isoproterenol heart-rate increase by 50 %): 0,12 mg/kg; Letalität LD 50 (Maus): 95 mg/kg
3 | CCc1cc(C=Cc2ccccc2OCC(O)CNC(C)(C)C)on1 (centres unmarked) [Verbindung 9, 3-Äthyl-5-[2-(2-hydroxy-3-tert.-butylaminopropoxy)-styryl]-isoxazol] | – | 6,1 | – | 0.93 | 84 | – | –
4 | Cc1cc(C=Cc2ccccc2OCC(O)CNC(C)(C)C)on1 (centres unmarked) [Verbindung 7, 3-Methyl-5-[2-(2-hydroxy-3-tert.-butylaminopropoxy)-styryl]-isoxazol] | 1 | 20,0 | 0,40 mg/kg | 0.4 | 123 | 0.0055 | ratio of the 10 mg/kg dose to the blood-pressure-lowering dose (0,4 mg/kg) (narkotisierten Ratte; Ratte, i.v.): 25 mal; ED20 ([1]; Rattus norvegicus, systolic pressure 2 h after dosing lowered by 20 %, read-out: Antihypertensive Wirkung ED 20 %): 14.5 mg/kg
5 | Cc1cc(C=Cc2ccccc2OCC(O)CNC(C)C)on1 (centres unmarked) [Verbindung 6, 3-Methyl-5-[2-(2-hydroxy-3-isopropyl-aminopropoxy)-styryl]-isoxazol] | – | 14,3 | – | 0.65 | 108 | 0.0077 | –
6 | C#CC(C)(C)NCC(O)COc1ccccc1C=Cc1cc(C)no1 (centres unmarked) [Verbindung 10] | – | 6,5 | – | 1 | 247 | – | –
